Consider ten molecules from patent US11891348B2, “Cycloheptylamine derivatives as anti-diabetic agents” (UNITED ARAB EMIRATES UNIVERSITY, priority 2020, dated 2024).

For data set [1], the system named is STZ-induced diabetic rats. Kind of data set: Fasting blood glucose (FBG) in Streptozotocin (STZ)-induced diabetic rats after oral administration. The data set is classed as in vivo. As to the method:
FIG. 1A is a bar graph showing in vivo anti-hyperglycemic effect on fasting blood glucose levels over time, ranging from 0 minute to 480 minutes, and at 1440 minutes, in STZ-induced diabetic rats, comparing a dose of 1.0 μM/kg compound 2a with control. Results are means±SEM; n=6 rats; * P<0.05, ** P<0.01, vs. STZ control.
FIG. 1B is a bar graph showing in vivo anti-hyperglycemic effect on fasting blood glucose levels over time, ranging from 0 minute to 480 minutes, and at 1440 minutes, in STZ-induced diabetic rats, comparing a dose of 1.0 μM/kg compound 2b with control. Results are means±SEM; n=6 rats; * P<0.05, ** P<0.01, vs. STZ control.
FIG. 1C is a bar graph showing in vivo anti-hyperglycemic effect on fasting blood glucose levels over time, ranging from 0 minute to 480 minutes, and at 1440 minutes, in STZ-induced diabetic rats, comparing an oral dose of 1.0 μM/kg compound 2c with control. Results are means±SEM; n=6 rats; * P<0.05, ** P<0.01, vs. STZ control.
FIG. 1D is a bar graph showing in vivo anti-hyperglycemic effect on fasting blood glucose levels over time, ranging from 0 minutes to 480 minutes, and at 1440 minutes, in STZ-induced diabetic rats, comparing a dose of 1.0 μM/kg compound 2d with control. Results are means±SEM; n=6 rats; * P<0.05, ** P<0.01, vs. STZ control.
These symptoms indicated the development of diabetes characterized by chronic and persistently elevated plasma glucose levels.
Compound 2a was orally administrated to the treated groups of diabetic rats at a dose of 1.0 μM/kg. Glucose levels in their blood were followed over 8.0 hours. […] Compounds 2b-d were orally administrated to the treated groups of diabetic rats at a dose of 1.0 μM/kg. Blood glucose levels were monitored at 0, 30 minutes, 60 minutes, 2 hours, 4 hours, 6 hours, 8 hours, and then again at 24 hours.

In a further data set the test system is βTC6 cells. The experiment in a line: Insulin secretion by βTC6 cells, high range insulin Sandwich ELISA kit. The data set is classed as cell-based. The conditions noted are these: for insulin secretion compared to the basal control: absence of glucose; for insulin secretion compared to basal insulin secretion: presence of 2.8 mM glucose, 10^−15, 10^−12, and 10^−9 M. As to the method:
FIG. 2A is a bar graph showing the in vitro effects on insulin secretion of compound 2a at concentrations of 10^−15, 10^−12, and 10^−9 M, compared to control, in both the absence and presence of 2.8 mM glucose. Results are means of triplicates±SEM; * P<0.05, ** P<0.01, *** P<0.001, from relative basal control.
The secretion of insulin by βTC6 cells was measured using the high range insulin Sandwich ELISA kit. The 2.8 mM glucose gave a mild insulin response around 3000 pmol/l and was used in testing the effect of compounds 2a-d. […]

[2] abbreviates: 10^−15, 10^−12, and 10^−9 M tested.

“Also recorded” adds a separate entry of the source. Counter-ions that a name gives are not always drawn.

Consider `c1cc(-c2cc[n+](C3CCCCCC3)cc2)ccn1` (as salt: chloride) [compound 6, 1-cycloheptyl-[4,4′-bipyridin]-1-ium chloride], for which the melting point stood at 102 °C.
Regarding `N=C(N)NC1CCCCCC1` (as salt: hydrochloride) [compound 10, 1-Cycloheptylguanidine hydrochloride], the melting point stood at 106 °C.
As to `O=C(Nc1cc(C(F)(F)F)cc(C(F)(F)F)c1)NC1CCCCCC1` [9a, 1-[3′,5′-Bis(trifluoromethyl)phenyl]-3-cycloheptylurea], the melting point was 169 to 170 °C.
Turning to `NC1CCCCCC1` [compound 2a, Cycloheptanamine Hydrochloride], in data set [1] (1.0 μM/kg), the “duration of significant reduction in blood glucose levels” value is “at least 8 hours” and the “time to significant reduction in blood glucose levels” value was not above 1 h. For the same molecule, the “reduction in blood glucose levels compared to control diabetic rats” value in data set [1] (oral dose of 1.0 μM/kg, followed over 8.0 hours, Hydrochloride) is on record as “significant reduction; also recorded: reductions in blood glucose levels”. In addition, the “insulin secretion compared to the basal control” value with βTC6 cells (setting [2]) is listed as “significantly stimulated”. Further, the “insulin secretion compared to the basal control” value with βTC6 cells (concentrations of 10^−15 and 10^−12 M) was “significantly stimulated”. Besides, the “insulin secretion compared to basal insulin secretion” value in the data set with βTC6 cells (Hydrochloride) is given as “stimulated insulin secretions significantly”. In addition, the “stimulation of insulin production” value in the data set on βTC6 cells (summary statement, glucose condition not given) is recorded as “stimulation of insulin production”.
Regarding `O=C(NC1CCCCCC1)C(=O)NC1CCCCCC1` [compound 8, N1,N2-dicycloheptyloxalamide], the melting point stood at 232 °C.
The molecule `Nc1nccc(NC(=O)NC2CCCCCC2)n1` [compound 9c, 1-(2′-Aminopyrimidin-4′-yl)-3-cycloheptylurea] registered a melting point of 139 to 141 °C. The “insulin secretion compared to the basal control” value in the data set with βTC6 cells (setting [2]) is given as “not to a statistically significant degree”. Besides, in the data set with βTC6 cells, the “insulin secretion compared to basal insulin secretion” value is “significant stimulation”.
On the same counts, the results for `Nc1ccc(S(=O)(=O)NC(=O)NC2CCCCCC2)cc1` [compound 9d, 4-Amino-N-(cycloheptylcarbamoyl)benzenesulfonamide] are 235 to 236 °C, “not to a statistically significant degree” and “significant stimulation”.
Regarding `Cc1ccc(S(=O)(=O)NC(=O)NC2CCCCCC2)cc1` [compound 9f, N-(Cycloheptylcarbamoyl)-4-methylbenzenesulfonamide], the “insulin secretion compared to the basal control” value with βTC6 cells (setting [2]) is listed as “not to a statistically significant degree”. For the same molecule, in the data set on βTC6 cells, the “insulin secretion compared to basal insulin secretion” value is “significant stimulation”.
As to `N=C(N)NC1CCCCCC1` [compound 10, 1-Cycloheptylguanidine hydrochloride], the “insulin secretion compared to the basal control” value with βTC6 cells (setting [2]) is recorded as “not to a statistically significant degree”. The “insulin secretion compared to basal insulin secretion” value in the data set on βTC6 cells was “significant stimulation”.
In turn, `Cl.N=C(N)/N=C(\N)NC1CCCCCC1` [compound 11, (E)-Amino[(amino(cycloheptylamino)methylene)amino]methaniminium chloride] showed a melting point of 283 °C. Further, in the data set with βTC6 cells (setting [2]), the “insulin secretion compared to the basal control” value was “not to a statistically significant degree”. The “insulin secretion compared to basal insulin secretion” value in the data set on βTC6 cells is on record as “significant stimulation”.

By melting point is commonly meant the temperature of the solid-liquid transition.
